US6365100B1, “Polymethylenepolyamine dipropionamides as environmentally safe inhibitors of the carbon corrosion of iron” (CECA, S.A., priority 1997, dated 2002)

Experiments:
[1] = system: Photobacterium phosphoreum; assay: Microtox bacterial ecotoxicity test (AFNOR NF T90-320); format: cell-based; details: lethal concentration to destroy 50% of the population in 15 minutes
Experimental: (§1) The ecotoxicity measurements for various polymethylenepolyaminedipropionamides were carried out on a bacterium (Photobacterium phosphoreum) and on an alga (Skeletonema costatum) . The bacterial test is the Microtox test carried out according to AFNOR standard NF T90-320. The toxicities on Skeletonema costatum are determined according to the method ISO/DIS 10253. The Microtox toxicity is expressed as LC50 (lethal concentration in mg/l to destroy 50% of the population in 15 minutes). On Skeletonema costatum, the toxicity is expressed as EC50 (effective concentration in mg/l to inhibit the growth of 50% of the population in 72 hours).

[2] = Carbonic corrosion-inhibitory efficiency by polarization resistance in CO2-saturated NACE-type solution; details: 25° C., reading after 6 hours
Experimental: The experimental procedures intended to evaluate the corrosion-inhibitory efficiencies in carbon dioxide-saturated medium of the products used (A, B and C of Example 1) are described in this example. In order to simulate the corrosive medium, a solution of NACE type containing 50 g/l of NaCl and 0.25 mg/l of acetic acid, saturated by continuously bubbling CO2 through, depending on the case, and with inhibitor added or not added, is used.
The process is performed in a thermostatically regulated 600 ml Pyrex cell including, besides a gas inlet and outlet, three electrodes coupled to the cell by ground joints, namely a carbon-steel working electrode whose surface of contact with the corrosive solution is 1 cm^2, a saturated calomel reference electrode and a platinum counterelectrode having a very large surface of contact with the corrosive solution. 500 ml of the corrosive solution is placed in the cell, as control or with inhibitor added, after which the counterelectrode and the reference electrode are put in place. The solution is de-aerated by bubbling nitrogen through for one hour and is then saturated with CO2 by bubbling for at least one hour. In order to ensure good saturation with CO2, this gas is left to bubble through throughout the experiment.
The rate of corrosion Vcorr is measured by a method of measuring polarization resistance, which is known in the art. The corrosion rate reading is taken after stabilization for 6 hours.
The percentage of protection (%P) which allows the corrosion-inhibitory efficiency of the test product to be expressed is given by the relationship:
%P={(V^0corr−V^icorr)/V^0corr}×100
where V^0corr=rate of corrosion without inhibitor
V^icorr=rate of corrosion in the presence of a dose of inhibitor.
Table II collates the percentages of protection at room temperature (25° C.) as a function of the nature of the polymethylenepolyaminodipropionamides used and their dose.

Skeletonema costatum = assay: Algal ecotoxicity test (ISO/DIS 10253); format: cell-based; details: concentration to inhibit the growth of 50% of the population in 72 hours
Experimental: as §1

Structure (SMILES)	Toxicity Microtox (LC50) [1] [µg/mL]	PERCENTAGE OF PROTECTION (%) ([2]; dose 10 ppm)	PERCENTAGE OF PROTECTION (%) ([2]; dose 20 ppm)	PERCENTAGE OF PROTECTION (%) ([2]; dose 50 ppm)	PERCENTAGE OF PROTECTION (%) ([2]; dose 100 ppm)	Toxicity Skeletonema costatum (EC50) (Skeletonema costatum) [µg/mL]
NC(=O)CCNCCNCCNCCNCCC(N)=O [Molecule B, H2NCO—(CH2)2—NH—[—(CH2)2 —NH—]3—CH2)2—CONH2]	104	34	43	48	56	
NC(=O)CCNCCCNCCNCCCNCCC(N)=O [Molecule C, H2NCO—(CH2)2—NH—(CH2)3—NH—(CH2)2—NH—(CH2)3—NH—(CH2)2—CONH2]	127	63	70	73	82	5 to 10
NC(=O)CCNCCNCCNCCC(N)=O [Molecule A, H2NCO—(CH2)2—NH—[—(CH2)2 —NH—]2—(CH2)2—CONH2 (RN 92009-86-4)]	128	24	44	48	53	
